This note sets out measurements from US20200016133A1, “PREVENTION AND TREATMENT OF THROMBOSIS IN MEDICALLY ILL PATIENTS” (Portola Pharmaceuticals, Inc., priority 2011, published 2020).

The nature of the data set: effect of co-administered P-glycoprotein (Pgp) inhibitor on betrixaban exposure. Format: in vivo. To be noted: with concomitant Pgp inhibitor. Here is the method: In some embodiments, a P-glycoprotein (Pgp) inhibitor is concomitantly administered to the patient. […] In one aspect, when used together with a Pgp inhibitor, betrixaban is administered at about 40 mg, or alternatively about 35 mg, or 30, or 25, or 20, or 15, or 10 mg daily. The same amount is applicable to patients who experience kidney insufficiency.

Take `COc1ccc(NC(=O)c2ccc(C(=N)N(C)C)cc2)c(C(=O)Nc2ccc(Cl)cn2)c1` [betrixaban, [2-({4-[(dimethylamino)iminomethyl]phenyl}carbonylamino)-5-methoxyphenyl]-N-(5-chloro(2-pyridyl))carboxamide]: the exposure of betrixaban result is reported as “increases the exposure”.
